From patent publication US20200247855A1, “THERAPY AND DIAGNOSTICS” (OXFORD UNIVERSITY INNOVATION LIMITED, priority 2017, published 2020) come the findings set out here.

Residues, ends and D or L forms follow the SMILES beside them. *: point of attachment. FITC = O=C1OC2(c3ccc(O)cc3Oc3cc(O)ccc32)c2ccc(NC(=S)*)cc21

In this experiment the target is T1, CCL8 (Homo sapiens, UniProt P80075).
T1 construct: SUMO (in-house protein only) (cleaved yes); made in house; host or cells: Escherichia coli RosettaGami 2 (DE3)
T1 sequence (P80075 24-99): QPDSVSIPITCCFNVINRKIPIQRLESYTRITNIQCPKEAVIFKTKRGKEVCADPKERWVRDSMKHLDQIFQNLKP
Nature of the experiment: Fluorescence polarisation (anisotropy) assay. It counts as binding. The conditions noted are these: BK1.1FITC Ala mutants, CCL8. The source says:
FIG. 14. Characterisation of P672_PEP-FITC by fluorescence polarisation. […] Residue C30 was mutated to A to avoid an unpaired cysteine residue. The residues corresponding to the above peptide are wholly contained within the CCL8-binding region of P672_RHIPU transferred in the hybrid evasin P672:EVA1 (SEQ ID 76, see FIG. 5). […] (SEQ ID NO: 90). FIG. 14(A). […] The curve was fitted to the two site-total and non-specific binding model in GraphPad Prism 6. Data are shown as mean and SEM of three independent experiments, with each independent experiment performed as three technical replicates. The affinity constant Kd was calculated in GraphPad Prism from the curve fit with the standard error reported.
FIG. 14(B). […] The measured fluorescence anisotropy (y-axis) of P672_PEP-FITC (50 nM) following binding to a fixed dose (1 μM)) of CCL7, CCL8, CCL18 and CXCL1 (negative control). […] Statistical significance was determined using one-way ANOVA with Sidak's correction for multiple comparisons using Graph Pad Prism 6. **=p<0.005, ****=P<0.00005, ns=not significant.
FIG. 15(C). […] In each case 100 μM (++) or […] (+) of P672_PEP was incubated with P672_PEP-FITC (50 nM)/chemokine (1 μM CCL7 and CCL18; 500 nM CCL8) and the resulting anisotropy measured. […] Experiment carried out in triplicate where each data point is the average of one experiment carried out in technical triplicate. Mean with SEM shown and statistical significance was determined using one-way ANOVA with Sidak's correction for multiple comparisons using Graph Pad Prism 6. *=p<0.05, ***=p<0.0005, ****=P<0.00005, ns=not significant.
Fluorescence polarization assays were performed using a Clariostar (BMG Tech) plate reader with the supplied FITC excitation and emission filters using 96 half area well plates (Corning). The buffer used (FP assay buffer) was 50 mM HEPES, 150 mM NaCl, 0.1% BSA, 0.002% TWEEN-20, 0.2% DMSO, pH 7.4 and the final volume in each well was 30 μL. Polarization was converted to anisotropy using the equation A=(2*P)/(3−P) where P is polarization and A is anisotropy. For each peptide tested the gain was set to 35 mP and adjusted to a well containing fluorescent peptide only. The polarization of the emitted light in the FITC emission channel was then determined. Experiments were performed as two technical and three biological replicates. Screening of P672 peptide fragments was achieved through incubation of each peptide (50 nM) with 1 μM CCL8 (Peprotech) for 30 minutes in FP assay buffer and the resulting anisotropy of the emitted light determined as above. The chemokine cross binding screen was performed by incubating 1 μM chemokine (Peprotech) with 50 nM BK1.1FITC for half an hour in FP assay buffer and the resulting anisotropy of the emitted light determined as above. […] The anisotropy was plotted as a function of CCL8 concentration and fitted to the equation: Y=Bmax*X/(KD+X)+NS*X+Background, where Y is the measured anisotropy, X is the concentration of CCL8 added, Bmax is the maximum binding, KD is the equilibrium dissociation constant, NS is the slope of the nonlinear regression and Background is the anisotropy when no CCL8 is present, in Graph Pad Prism. Displacement assays were carried out with CCL7, CCL8, and CCL18 (Peprotech, 1 μM). […] For all FP assays, the experiments were carried out as two technical and three biological replicates.
(Fluorescence polarisation rises when a labelled molecule tumbles more slowly, as on binding a larger partner.)
Consider `CC(C)[C@H](NC(=O)[C@@H]1CCCN1C(=O)[C@H](CCCCN)NC(=O)[C@H](Cc1ccccc1)NC(=O)[C@H](Cc1ccccc1)NC(=O)[C@H](CC(=O)O)NC(=O)[C@H](CCC(=O)O)NC(=O)[C@H](Cc1ccc(O)cc1)NC(=O)[C@H](CC(=O)O)NC(=O)[C@H](CCC(=O)O)NC(=O)[C@H](C)NC(=O)[C@H](CCC(=O)O)NC(=S)Nc1ccc2c(c1)C(=O)OC21c2ccc(O)cc2Oc2cc(O)ccc21)C(=O)N[C@H](C(=O)N[C@@H](C)C(=O)N[C@@H](Cc1ccc(O)cc1)C(=O)N[C@@H](Cc1ccccc1)C(N)=O)[C@@H](C)O` [D18A] ({FITC}-EAEDYEDFFKPVTAYF-NH2), for which the “Fold change (Kd versus WT)” value was determined as 2.5. For `CC(C)[C@H](NC(=O)[C@@H]1CCCN1C(=O)[C@H](CCCCN)NC(=O)[C@H](Cc1ccccc1)NC(=O)[C@H](Cc1ccccc1)NC(=O)[C@H](CC(=O)O)NC(=O)[C@H](CCC(=O)O)NC(=O)[C@H](Cc1ccc(O)cc1)NC(=O)[C@H](C)NC(=O)[C@H](CCC(=O)O)NC(=O)[C@H](CC(=O)O)NC(=O)[C@H](CCC(=O)O)NC(=S)Nc1ccc2c(c1)C(=O)OC21c2ccc(O)cc2Oc2cc(O)ccc21)C(=O)N[C@H](C(=O)N[C@@H](C)C(=O)N[C@@H](Cc1ccc(O)cc1)C(=O)N[C@@H](Cc1ccccc1)C(N)=O)[C@@H](C)O` [D20A] ({FITC}-EDEAYEDFFKPVTAYF-NH2), the “Fold change (Kd versus WT)” value came out at 1.5. Turning to `CC(C)[C@H](NC(=O)[C@@H]1CCCN1C(=O)[C@H](CCCCN)NC(=O)[C@H](Cc1ccccc1)NC(=O)[C@H](Cc1ccccc1)NC(=O)[C@H](C)NC(=O)[C@H](CCC(=O)O)NC(=O)[C@H](Cc1ccc(O)cc1)NC(=O)[C@H](CC(=O)O)NC(=O)[C@H](CCC(=O)O)NC(=O)[C@H](CC(=O)O)NC(=O)[C@H](CCC(=O)O)NC(=S)Nc1ccc2c(c1)C(=O)OC21c2ccc(O)cc2Oc2cc(O)ccc21)C(=O)N[C@H](C(=O)N[C@@H](C)C(=O)N[C@@H](Cc1ccc(O)cc1)C(=O)N[C@@H](Cc1ccccc1)C(N)=O)[C@@H](C)O` [D23A] ({FITC}-EDEDYEAFFKPVTAYF-NH2), the “Fold change (Kd versus WT)” value is listed as 1.5.

Turning to `CC(C)[C@H](NC(=O)[C@@H]1CCCN1C(=O)[C@H](CCCCN)NC(=O)[C@H](Cc1ccccc1)NC(=O)[C@H](Cc1ccccc1)NC(=O)[C@H](CC(=O)O)NC(=O)[C@H](CCC(=O)O)NC(=O)[C@H](Cc1ccc(O)cc1)NC(=O)[C@H](CC(=O)O)NC(=O)[C@H](CCC(=O)O)NC(=O)[C@H](CC(=O)O)NC(=O)[C@H](C)NC(=S)Nc1ccc2c(c1)C(=O)OC21c2ccc(O)cc2Oc2cc(O)ccc21)C(=O)N[C@H](C(=O)N[C@@H](C)C(=O)N[C@@H](Cc1ccc(O)cc1)C(=O)N[C@@H](Cc1ccccc1)C(N)=O)[C@@H](C)O` [E17A] ({FITC}-ADEDYEDFFKPVTAYF-NH2), the “Fold change (Kd versus WT)” value amounted to 1.2. Consider `CC(C)[C@H](NC(=O)[C@@H]1CCCN1C(=O)[C@H](CCCCN)NC(=O)[C@H](Cc1ccccc1)NC(=O)[C@H](Cc1ccccc1)NC(=O)[C@H](CC(=O)O)NC(=O)[C@H](CCC(=O)O)NC(=O)[C@H](Cc1ccc(O)cc1)NC(=O)[C@H](CC(=O)O)NC(=O)[C@H](C)NC(=O)[C@H](CC(=O)O)NC(=O)[C@H](CCC(=O)O)NC(=S)Nc1ccc2c(c1)C(=O)OC21c2ccc(O)cc2Oc2cc(O)ccc21)C(=O)N[C@H](C(=O)N[C@@H](C)C(=O)N[C@@H](Cc1ccc(O)cc1)C(=O)N[C@@H](Cc1ccccc1)C(N)=O)[C@@H](C)O` [E19A] ({FITC}-EDADYEDFFKPVTAYF-NH2), for which the “Fold change (Kd versus WT)” value amounted to 2.1. For `CC(C)[C@H](NC(=O)[C@@H]1CCCN1C(=O)[C@H](CCCCN)NC(=O)[C@H](Cc1ccccc1)NC(=O)[C@H](Cc1ccccc1)NC(=O)[C@H](CC(=O)O)NC(=O)[C@H](C)NC(=O)[C@H](Cc1ccc(O)cc1)NC(=O)[C@H](CC(=O)O)NC(=O)[C@H](CCC(=O)O)NC(=O)[C@H](CC(=O)O)NC(=O)[C@H](CCC(=O)O)NC(=S)Nc1ccc2c(c1)C(=O)OC21c2ccc(O)cc2Oc2cc(O)ccc21)C(=O)N[C@H](C(=O)N[C@@H](C)C(=O)N[C@@H](Cc1ccc(O)cc1)C(=O)N[C@@H](Cc1ccccc1)C(N)=O)[C@@H](C)O` [E22A] ({FITC}-EDEDYADFFKPVTAYF-NH2), the “Fold change (Kd versus WT)” value is reported as 4.0. In the case of `CC(C)[C@H](NC(=O)[C@@H]1CCCN1C(=O)[C@H](CCCCN)NC(=O)[C@H](Cc1ccccc1)NC(=O)[C@H](C)NC(=O)[C@H](CC(=O)O)NC(=O)[C@H](CCC(=O)O)NC(=O)[C@H](Cc1ccc(O)cc1)NC(=O)[C@H](CC(=O)O)NC(=O)[C@H](CCC(=O)O)NC(=O)[C@H](CC(=O)O)NC(=O)[C@H](CCC(=O)O)NC(=S)Nc1ccc2c(c1)C(=O)OC21c2ccc(O)cc2Oc2cc(O)ccc21)C(=O)N[C@H](C(=O)N[C@@H](C)C(=O)N[C@@H](Cc1ccc(O)cc1)C(=O)N[C@@H](Cc1ccccc1)C(N)=O)[C@@H](C)O` [F24A] ({FITC}-EDEDYEDAFKPVTAYF-NH2) it was 1.5. Take `CC(C)[C@H](NC(=O)[C@@H]1CCCN1C(=O)[C@H](CCCCN)NC(=O)[C@H](C)NC(=O)[C@H](Cc1ccccc1)NC(=O)[C@H](CC(=O)O)NC(=O)[C@H](CCC(=O)O)NC(=O)[C@H](Cc1ccc(O)cc1)NC(=O)[C@H](CC(=O)O)NC(=O)[C@H](CCC(=O)O)NC(=O)[C@H](CC(=O)O)NC(=O)[C@H](CCC(=O)O)NC(=S)Nc1ccc2c(c1)C(=O)OC21c2ccc(O)cc2Oc2cc(O)ccc21)C(=O)N[C@H](C(=O)N[C@@H](C)C(=O)N[C@@H](Cc1ccc(O)cc1)C(=O)N[C@@H](Cc1ccccc1)C(N)=O)[C@@H](C)O` [F25A] ({FITC}-EDEDYEDFAKPVTAYF-NH2): the “Fold change (Kd versus WT)” value was 4.6.

With `CC(C)[C@H](NC(=O)[C@@H]1CCCN1C(=O)[C@H](CCCCN)NC(=O)[C@H](Cc1ccccc1)NC(=O)[C@H](Cc1ccccc1)NC(=O)[C@H](CC(=O)O)NC(=O)[C@H](CCC(=O)O)NC(=O)[C@H](Cc1ccc(O)cc1)NC(=O)[C@H](CC(=O)O)NC(=O)[C@H](CCC(=O)O)NC(=O)[C@H](CC(=O)O)NC(=O)[C@H](CCC(=O)O)NC(=S)Nc1ccc2c(c1)C(=O)OC21c2ccc(O)cc2Oc2cc(O)ccc21)C(=O)N[C@H](C(=O)N[C@@H](C)C(=O)N[C@@H](Cc1ccc(O)cc1)C(=O)N[C@@H](C)C(N)=O)[C@@H](C)O` [F32A] ({FITC}-EDEDYEDFFKPVTAYA-NH2), the “Fold change (Kd versus WT)” value came out at 2.3. Regarding `CC(C)[C@H](NC(=O)[C@@H]1CCCN1C(=O)[C@H](C)NC(=O)[C@H](Cc1ccccc1)NC(=O)[C@H](Cc1ccccc1)NC(=O)[C@H](CC(=O)O)NC(=O)[C@H](CCC(=O)O)NC(=O)[C@H](Cc1ccc(O)cc1)NC(=O)[C@H](CC(=O)O)NC(=O)[C@H](CCC(=O)O)NC(=O)[C@H](CC(=O)O)NC(=O)[C@H](CCC(=O)O)NC(=S)Nc1ccc2c(c1)C(=O)OC21c2ccc(O)cc2Oc2cc(O)ccc21)C(=O)N[C@H](C(=O)N[C@@H](C)C(=O)N[C@@H](Cc1ccc(O)cc1)C(=O)N[C@@H](Cc1ccccc1)C(N)=O)[C@@H](C)O` [K26A] ({FITC}-EDEDYEDFFAPVTAYF-NH2), the “Fold change (Kd versus WT)” value is on record as 0.8. For `CC(C)[C@H](NC(=O)[C@@H]1CCCN1C(=O)[C@H](CCCCN)NC(=O)[C@H](Cc1ccccc1)NC(=O)[C@H](Cc1ccccc1)NC(=O)[C@H](CC(=O)O)NC(=O)[C@H](CCC(=O)O)NC(=O)[C@H](Cc1ccc(O)cc1)NC(=O)[C@H](CC(=O)O)NC(=O)[C@H](CCC(=O)O)NC(=O)[C@H](CC(=O)O)NC(=O)[C@H](CCC(=O)O)NC(=S)Nc1ccc2c(c1)C(=O)OC21c2ccc(O)cc2Oc2cc(O)ccc21)C(=O)N[C@@H](C)C(=O)N[C@@H](C)C(=O)N[C@@H](Cc1ccc(O)cc1)C(=O)N[C@@H](Cc1ccccc1)C(N)=O` [T29A] ({FITC}-EDEDYEDFFKPVAAYF-NH2) the value was 2.0.
